Results on four molecules are retold here after patent US12098217B2, “Fusion peptides as antimicrobial agents” (CENTRE NATIONAL DE LA RECHERCHE SCIENTIFIQUE, priority 2019, dated 2024).

Each structure is given as a SMILES string. Converted amounts (≈) assume the structure as drawn. Read-outs that look alike come from different tables or passages of the source. Square brackets hold non-standard residues; d marks the D form. Peptide text beside a SMILES is read from it. * marks the point of attachment. 5FAM = O=C1OC2(c3ccc(O)cc3Oc3cc(O)ccc32)c2ccc(C(=O)*)cc21; Phe(3,4-Cl2) = N[C@@H](Cc1ccc(Cl)c(Cl)c1)C(=O)O; Cha = N[C@@H](CC1CCCCC1)C(=O)O

In assay [1] the target is T1, E. coli SC (^EcSC, beta ring, DnaN) (Escherichia coli, UniProt P0A988).
T1 construct: inferred from the pET15b vector and the Ni-NTA/imidazole purification; made in house; host or cells: E. coli BL21 (DE3) pLys
Description: ITC, peptide interaction with E. coli sliding clamp. Type of assay: binding. As to the method: The DnaN protein was expressed from plasmids pET15b, containing the dnaN gene from E. coli, transfected in BL21 (DE3) pLys E. coli strain. Cells were grown in LB at 37° C. to OD 0.5, then induced by IPTG (0.1 mM) at 28° C. overnight. DnaN protein was first enriched on a Ni-NTA column, eluted with an imidazole step (300 mM) and further purified on a Source Q column in buffer containing 20 mM Tris HCl pH 7.5, 0.5 mM EDTA and 10% glycerol, using a gradient from 0 to 0.5 M NaCl. After a final ultracentrifugation (45K, 1 h, 20° C.), soluble proteins were concentrated on a Centricon 30K (Millipore) in the same buffer and stored at 4° C. in 2 M ammonium sulfate.
ITC experiments were performed on a iTC200 (Microcal Malvern Panalytical) or PEAQ-ITC instrument (Microcal Malvern Panalytical). The E. coli SC were washed extensively with ITC buffer (R1 buffer: 10 mM Hepes pH 7.4, 0.15 M NaCl, 3 mM EDTA) on Centrikon 10K at 4° C. before ITC experiments. […] Similarly, E. coli 70S ribosome particles were also washed extensively with ITC 70S buffer (50 mM Tris HCl pH7.5, 30 mM KCl, 70 mM NH4Cl, 7 mM MgCl2, 1 mM DTT, 5% glycerol) on Centrikon 100K at 4° C. before ITC experiments. […] […] Data were corrected from control experiments in which peptides were injected in ITC buffer solution. Each titration was performed at least twice. Analyses of experimental data were performed with AFFINImeter software (https://www.affinimeter.com; S4S, Santiago de Compostela, Spain).
(In general: Isothermal titration calorimetry measures the heat released or taken up as one component is titrated into another.)

Assay [2] has as its system E. coli 70S ribosome (^Ec70S). Description: ITC, peptide interaction with E. coli 70S ribosome. The class given is binding. The procedure:
E. coli MRE600 cells were grown at 37° C. in LB medium until OD^600=1. Cells were centrifuged at 4° C., and pellets were resuspended in buffer A (20 mM Tris HCl pH 7.5; 200 mM NH4Cl; 20 mM MgCl2; 0.1 mM EDTA; 6 mM β-mercaptoethanol) and lysed using a French press at 1.6 kbar. The crude lysate was centrifuged (18 200 rpm) for 30 mn at 4° C. The supernatant was further centrifuged (47000 rpm) at 4° C. for 4 hours and the pellet resuspended in 12.5 ml of buffer A. This solution was laid on a 30% sucrose cushion and centrifuged (34 000 rpm) for 19 hours at 4° C. The ribosome pellet was resuspended in 12.5 ml buffer B (20 mM Tris HCl pH 7.5; 50 mM NH4Cl; 10 mM MgCl2; 0.1 mM EDTA; 6 mM β-mercaptoethanol) and centrifuged again (18 200 rpm) for 1 hour at 4° C. The supernatant was concentrated on Centrikon 100K (Millipore) and washed extensively with ITC 70S buffer. Ribosome concentration was determined by UV absorption at 260 nm. Samples were snap frozen in liquid nitrogen and kept at −80° C.
ITC experiments were performed on a iTC200 (Microcal Malvern Panalytical) or PEAQ-ITC instrument (Microcal Malvern Panalytical). The E. coli SC were washed extensively with ITC buffer (R1 buffer: 10 mM Hepes pH 7.4, 0.15 M NaCl, 3 mM EDTA) on Centrikon 10K at 4° C. before ITC experiments. […] Similarly, E. coli 70S ribosome particles were also washed extensively with ITC 70S buffer (50 mM Tris HCl pH7.5, 30 mM KCl, 70 mM NH4Cl, 7 mM MgCl2, 1 mM DTT, 5% glycerol) on Centrikon 100K at 4° C. before ITC experiments. Peptides (100 to 400 μM) were titrated at 30° C. (303.15 K) in sequential injections (usually 2 μl each) into a SC (20 or 30 μM) or 70S (10 to 15 μM) solution. Data were corrected from control experiments in which peptides were injected in ITC buffer solution. Each titration was performed at least twice. Analyses of experimental data were performed with AFFINImeter software (https://www.affinimeter.com; S4S, Santiago de Compostela, Spain).
The lack of interaction with the ribosome of E. coli has been measured by ITC at 30° C.:
The interactions of these peptides with the E. coli SC (beta ring) and the ribosome were measured by ITC at […]: […]

Another assay relates to E. coli D22 strain. Description: microbe, parasite or virus in culture. The class given is cell-based. As to conditions: D22 strain, 36 h. From the text: E. coli strain D22 (F-, IpxC101, proA23, lac-28, tsx-81, trp-30, his-51, tufA1, rpsL173(strR), ampCp-1 was purchased at E. coli Genetic Stock Center (Yale University) and used in the determination of MIC and in the peptide penetration assays. E. coli ATCC23724 cells were used to infect D. melanogaster flies. 70S ribosomes were purified from the E. coli MRE600 strain (Accession AY140951) and BL21 (DE3) pLys strain was used for production of the DnaN protein.
(§1) E. coli strains were cultivated on either agar or liquid 1× Mueller Hinton broth unless specified. MIC assays were performed in duplicate in 96-well microtiter plates on the basis of the protocol recommended by the Clinical and Laboratory Standards Institute. Briefly, a mix of 5-6 fresh (less than 36 hours) colonies grown on MH agar plates were inoculated in 3 ml of MH broth and incubated for about 16 h at 37° C. under agitation. 30 μl of this saturated culture were inoculated in 3 ml of fresh medium and allowed to grow until OD600 nm of about 0.6-0.8. Dilution to an OD600 nm of 0.002 was made in MH broth. Within a time laps not exceeding 30 min, 50 μl of this cell suspension was added to 50 μl of MH broth (containing or not the peptide/antibiotic diluted in MH broth) in wells of a 96-well round bottom microwell plate (Greiner; final cell density about 2 to 5×10^5 cfu/ml). Plates were incubated at 37° C. for 18-24 h and final turbidity of each well was measured at 620 nm using a Multiskan FC microplate reader (Thermo Scientific). MIC was defined as the minimal antibiotic concentration that result in no increase of turbidity at that time. Each MIC determination was performed in duplicate and at least in two independent experiments. Plating of 75 μl of the content of the wells of interest on LB Agar plates was used to determine the MBC that is defined by a decrease of at least 99.9% of cell viability as compared to the number of viable cells in the inoculum (about 2 to 5×10^4 cfu).

A further assay relates to E. coli. The settings on record: cited from earlier work.
Assay [3] concerns E. coli ATCC 25922 (DSM 1103) strain. Type of assay: cell-based. As to conditions: for MIC: ATCC 25922, 36 h. The procedure: as §1
The antimicrobial activities of these peptides have been tested against the E. coli ATCC 25922 (DSM 1103) strain in 1× Mueller-Hinton broth as mentioned above.
The antimicrobial activities of these peptides and controls have been tested against the E. coli ATCC 25922 (DSM 1103) strain in 1× Mueller-Hinton broth.

Where [4] appears, read: ITC 30° C., Table 2A, ^EcSC, Ni = no specific interaction.
The mark [5] stands for this setting: ITC 30° C., Table 2B, ^Ec70S, Ni = no specific interaction, FITC peptides (*) values not well defined.
Setting [6] is: ITC, 30° C., E. coli ribosome, FITC-Onc112 series.
[7] abbreviates: ITC 25° C., E. coli SC (beta ring).

T1 sequence (P0A988 whole entry): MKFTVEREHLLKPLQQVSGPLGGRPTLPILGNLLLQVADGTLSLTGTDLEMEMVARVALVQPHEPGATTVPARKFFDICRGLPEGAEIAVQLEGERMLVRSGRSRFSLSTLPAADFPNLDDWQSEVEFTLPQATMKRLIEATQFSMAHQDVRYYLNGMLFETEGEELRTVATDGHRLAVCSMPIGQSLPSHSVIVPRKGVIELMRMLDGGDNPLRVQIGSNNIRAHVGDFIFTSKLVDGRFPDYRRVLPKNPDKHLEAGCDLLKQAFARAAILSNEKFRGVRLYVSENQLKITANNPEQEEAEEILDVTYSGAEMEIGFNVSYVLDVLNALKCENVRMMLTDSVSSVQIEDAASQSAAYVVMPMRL

As a reminder, the Kd is a measure of binding affinity in units of concentration. As for `CC[C@H](C)[C@H](NC(=O)[C@@H]1CCCN1C(=O)[C@H](CCCNC(=N)N)NC(=O)[C@@H]1CCCN1C(=O)[C@@H]1CCCN1C(=O)[C@@H](NC(=O)[C@@H]1CCCN1C(=O)[C@H](CCCNC(=N)N)NC(=O)[C@@H]1CCCN1C(=O)[C@H](CC(C)C)NC(=O)[C@H](Cc1ccc(O)cc1)NC(=O)[C@H](CO)NC(=O)CNC(=O)[C@H](CCCCN)NC(=O)[C@H](CC(=O)O)NC(=O)[C@@H](N)C(C)C)[C@@H](C)O)C(=O)N[C@@H](Cc1ccc(O)cc1)C(=O)N[C@@H](CC(N)=O)C(=O)N[C@@H](CCCNC(=N)N)C(=O)N[C@@H](CC(N)=O)C(N)=O` [Py, reference compound] (H-VDKGSYLPRPTPPRPIYNRN-NH2), the “interaction with ^EcSC, in words” value in assay [1] (ITC 30° C.) is “do not interact”. The “ΔH (kcal/mole)” value in assay [1] (ITC 30° C. (303.15 K), Table 2A, ^EcSC, Ni = no specific interaction) is “Ni”. In assay [1] (setting [4]), the “Kd (nM)” value was “Ni”, the “ΔG (kcal/mole)” value is on record as “Ni” and the “−TΔS (kcal/mole)” value is recorded as “Ni”. For the same molecule, the affinity in assay [2] (ITC 30° C., Table 2B, ^Ec70S, Ni = no specific interaction), expressed as Kd, was 0.0155 µM. For the same molecule, in assay [2] (setting [5]), the “ΔG” value is -10.9 kcal/mol, the “ΔH” value is -19.2 kcal/mol and the “−TΔS” value amounted to 8.23 kcal/mol. Moreover, the “MBC” value in the assay on E. coli D22 strain is 8 µg/mL (≈ 3.42 µM). The “MIC of previous reports” value in the assay with E. coli was 3.69 to 7.56 µM. Besides, in the assay with E. coli (other E. coli strains and/or culture media), the “MIC of previous reports” value is 9 to 18 µg/mL.

By MIC is commonly meant the smallest concentration in the dilution series that meets the test's criterion for growth inhibition. In the case of `CC[C@H](C)[C@H](NC(=O)[C@@H](CCCNC(=N)N)NC(=O)[C@H](CCCNC(=N)N)NC(=O)[C@@H]1CCCN1C(=O)[C@@H]1CCCN1C(=O)[C@H](CCCNC(=N)N)NC(=O)[C@@H]1CCCN1C(=O)[C@H](CCCNC(=N)N)NC(=O)[C@@H]1CCCN1C(=O)[C@H](CC(C)C)NC(=O)[C@H](Cc1ccc(O)cc1)NC(=O)[C@@H]1CCCN1C(=O)[C@@H]1CCCN1C(=O)[C@H](CCCCN)NC(=O)[C@H](CC(=O)O)NC(=O)[C@@H](NC(=O)[C@H](CCCCN)NC(=O)c1ccc2c(c1)C(=O)OC21c2ccc(O)cc2Oc2cc(O)ccc21)C(C)C)C(=O)N[C@@H](Cc1ccc(O)cc1)C(=O)N[C@@H](CC(N)=O)C(=O)N[C@H](CCCNC(=N)N)C(=O)NCC(=O)N1CCC[C@H]1C(=O)N[C@@H](CCCNC(=N)N)C(=O)N[C@@H](CCC(N)=O)C(=O)N[C@@H](CC1CCCCC1)C(=O)N[C@@H](CC(=O)O)C(=O)N[C@@H](CC(C)C)C(=O)N[C@@H](Cc1ccc(Cl)c(Cl)c1)C(=O)O` [CM1-94] (5FAM-KVDKPPYLPRPRPPR[dR]IYN[dR]GPRQ[Cha]DL[Phe(3,4-Cl2)]-OH; N-terminus assumed), the Kd in assay [2] (setting [6]) is greater than 10 µM. Moreover, the “MIC” value in assay [3] lay within 4 to 8 µM.

`CC[C@H](C)[C@H](NC(=O)[C@@H](CCCNC(=N)N)NC(=O)[C@H](CCCNC(=N)N)NC(=O)[C@@H]1CCCN1C(=O)[C@@H]1CCCN1C(=O)[C@H](CCCNC(=N)N)NC(=O)[C@@H]1CCCN1C(=O)[C@H](CCCNC(=N)N)NC(=O)[C@@H]1CCCN1C(=O)[C@H](CC(C)C)NC(=O)[C@H](Cc1ccc(O)cc1)NC(=O)[C@@H]1CCCN1C(=O)[C@@H]1CCCN1C(=O)[C@H](CCCCN)NC(=O)[C@H](CC(=O)O)NC(=O)[C@@H](NC(=O)[C@H](CCCNC(=N)N)NC(=O)[C@@H]1CCCN1C(=O)CNC(=O)[C@H](Cc1ccccc1)NC(=O)[C@H](CC(C)C)NC(=O)[C@H](CC(=O)O)NC(=O)[C@H](CC1CCCCC1)NC(=O)[C@H](CCC(N)=O)NC(C)=O)C(C)C)C(=O)N[C@@H](Cc1ccc(O)cc1)C(=O)N[C@@H](CC(N)=O)C(=O)N[C@H](CCCNC(=N)N)C(N)=O` [CM1-76] (Ac-Q[Cha]DLFGPRVDKPPYLPRPRPPR[dR]IYN[dR]-NH2): in assay [1] (setting [7]), the “ΔG” value is -9.0 kcal/mol and the “ΔH” value is -10.7 kcal/mol. The “interaction with the E. coli ribosome (70S), in words” value in assay [2] (ITC 25° C.) is on record as “no interaction”. For the same molecule, the “MIC” value in assay [3] lay in the range of 8 to 16 µM. Moreover, the “factor of improvement of antimicrobial activity versus CA3-30” value in assay [3] (E. coli ATCC 25922, MIC) is 2.

Take `CC[C@H](C)[C@H](NC(=O)[C@@H](CCCNC(=N)N)NC(=O)[C@H](CCCNC(=N)N)NC(=O)[C@@H]1CCCN1C(=O)[C@@H]1CCCN1C(=O)[C@H](CCCNC(=N)N)NC(=O)[C@@H]1CCCN1C(=O)[C@H](CCCNC(=N)N)NC(=O)[C@@H]1CCCN1C(=O)[C@H](CC(C)C)NC(=O)[C@H](Cc1ccc(O)cc1)NC(=O)[C@@H]1CCCN1C(=O)[C@@H]1CCCN1C(=O)[C@H](CCCCN)NC(=O)[C@H](CC(=O)O)NC(=O)[C@@H](NC(=O)[C@H](CCCCN)NC(=O)c1ccc2c(c1)C(=O)OC21c2ccc(O)cc2Oc2cc(O)ccc21)C(C)C)C(=O)N[C@@H](Cc1ccc(O)cc1)C(=O)N[C@@H](CC(N)=O)C(=O)N[C@H](CCCNC(=N)N)C(=O)NCC(=O)N1CCC[C@H]1C(=O)N[C@@H](CCCNC(=N)N)C(=O)N[C@@H](CCC(N)=O)C(=O)N[C@@H](CC1CCCCC1)C(=O)N[C@@H](CC(=O)O)C(=O)N[C@@H](CC(C)C)C(=O)N[C@@H](Cc1ccccc1)C(=O)O` [CM1-92] (5FAM-KVDKPPYLPRPRPPR[dR]IYN[dR]GPRQ[Cha]DLF-OH): the Kd in assay [2] (setting [6]) is greater than 50 µM. The “MIC” value in assay [3] stood at 16 µM (≈ 61.5 µg/mL).
